Measurements taken from patent publication US20040106663A1, “Inhibitors of fungal invasion” (priority 2002, published 2004).
Several values for one entry are separate records, joined by “and”; a condition that tells them apart may be missing. Equal entries are not always repeated. Where two headings read alike, the source gives them in different places.

Experiments:
C. albicans = C. albicans overnight growth inhibition; assay type: cell-based, Candida albicans; design: concentration or dose not given beside the values
[1] = test system: logarithmic phase C. albicans (MC295) containing HWP1-lacZ; assay: microbe, parasite or virus in culture; assay type: cell-based; settings: Candida albicans
[2] = test system: stationary phase C. albicans (MC295) containing HWP1-lacZ; assay: microbe, parasite or virus in culture; assay type: cell-based, Candida albicans
C. albicans (MC303) = assay: C. albicans morphology assay (hyphae scored 1-5); settings: scale 1-5; for C. albicans Phenotype Rating: invasion morphology phenotype, test compound at 10 μM
Experimental: In this assay, described in greater detail below, the morphology of cells was assessed and scored on a 1-5 scale. A score of 1 was assigned to non-hyphal cells, “yeast-like” cells and budding cells, and a score of 5 was assigned to cells having many, relatively long (wild-type) hyphae.
A frozen stock culture was prepared by streaking C. albicans (MC303: ura3 Δ:: imm434/ura3Δ:: imm434 arg4::hisG/arg4::hisG ade2:: URA3:.pTEF1-lacZ/ADE2 hisl::hisG/HIS1 gal1::ARG4/GAL1) cells on a YPD agar plate and grown at 30° C. for 14-18 h. An isolated colony was added to 5 mL of YPD broth and grown on a roller drum (60 rpm) for 14-18 h at 30° C. Next, 600 μL of culture were aliquotted into 1 mL of 25% glycerol, and the tubes are stored at −80° C.
Frozen MC303 C. albicans cell stock was struck for isolation of a single colony using a sterile loop on a YPD agar plate and grown at 30° C. for 14-18 h. A single colony was inoculated into 5 mL of YPD in a test tube and grown on a roller drum (60 rpm) for 2 days at 30° C. to late stationary phase (OD600˜30). For the assay, this stock was diluted to 2.5×10^5 cells/mL to make a 10× stock. Next, 10 μL of this cell stock was added to 80 μL of Inducing Media and 10 μL of 10× compound stock or DMSO in a Coming, tissue-culture treated, flat-bottom, microtiter plate. The plate was incubated at 37° C. for 24 h. Next, 10 μL of formaldehyde (37%) was added to each well and the cells were fixed for 10 min. The liquid was gently decanted from the plate and each well was examined under a microscope. Each well was photographed and observed cells are scored on a scale of 1-5. […] A 1 indicates cells are non-hyphal with only “yeast-like” cells and budding cells.
Scores of 2, 3, and 4 indicate shorter length or reduced quantity of hyphae when compared with WT (2 being very near non-hyphal and 4 being close to WT).

[3] = test system: HepG2 human hepatoma cells; settings: 4 h
Experimental: Mammalian Cell Toxicity Assay
To investigate the toxicity of Compound I for mammalian cells, human hepatoma cell line HepG2 were exposed to Compound I and the (LD50) was determined. Briefly, HepG2 human hepatoma cells (American Type Culture Collection, Bethesda Md.) were plated at 1×10^5 cells/well in tissue culture treated 96 well plates and incubated at 5% CO2, 37° C. for 18 h prior to initiation of the assay. The compound stocks at 100 mM in DMSO were added to DM (defined media, media without serum with added insulin, selenium and transferrin) at an initial concentration of 1000 μM and serially diluted 1 to 3 in DM in a 96 well plate. For 20 μL of a test solution, 3.5 μL sample is added to 346.5 μL media for an initial concentration of 1000 μM. These dilutions are added to the cells at final sample concentrations between 0.5 and 1000 μM (<1% DMSO). Controls included: media only (negative control) and 0.1% Triton-X (positive control). Control drugs (tamoxifen and 2-thiouracil) were also used to verify each assay. The samples were incubated at 37° C. in humidified 5% CO2 atmosphere for 4 h.
The plate was read directly on the Tecan Spectrafluor Plus reader in the fluorescent mode at excitation 530 nm and emission 595 nm. The blank was subtracted from the total fluorescence to give the net fluorescence for that well. This total was compared to the control in the absence of the compound. An LD50 (concentration at 50% of lethal dose) is calculated as the concentration that leads to a response of 50% compared to the control cells. Thus, cytotoxicity is measured as percent of inhibition of cell viability as determined by the Alamar Blue assay.

[4] = read-out: C. albicans LOG IC50, logarithmic phase growth invasion assay (converted)
[5] = Candida albicans, read-out: C. albicans STAT IC50, stationary phase growth invasion assay

Row | SMILES | C. albicans Overnight Growth Inhibition (C. albicans) | IC50 [1, 4] | IC50 [2, 5] | C. albicans Phenotype Rating (C. albicans (MC303)) | AFDD Mammalian Cytotoxicity LD50 [3] | IC50 ([2]; read-out: C. albicans STAT IC50, stationary phase growth invasion assay) | IC50 ([1]; read-out: concentration inhibiting invasion of logarithmic phase C. albicans by 50%, logarithmic phase) | mammalian cell LD50 [3] | IC50 ([2]; Candida albicans, read-out: concentration inhibiting invasion of stationary phase C. albicans by 50%, stationary phase) | average morphology score (C. albicans (MC303); 10 μM)
1 | Cc1cc(NS(=O)(=O)c2ccc(-c3cccc(Cl)c3Cl)cc2)no1 | −0.3% | 3.01 µM | > 20 µM | 5 |  |  |  |  |  | 
2 | Cc1cc(NS(=O)(=O)c2ccc(-c3ccc(F)cc3)cc2)no1 | 12.7% | 0.294 µM |  |  | 983.2 µM |  |  |  |  | 
3 | Cc1cc(NS(=O)(=O)c2ccc(-c3ccc(F)c(C)c3)cc2)no1 | 2.6% | 0.116 µM |  |  | 601.4 µM |  |  |  |  | 
4 | CCCCc1cc(F)c(S(=O)(=O)Nc2cc(C)on2)cc1F | −14.5% | 0.087 µM | > 20 µM | 5 |  |  |  |  |  | 
5 | CCCSCc1ccc(S(=O)(=O)Nc2cc(C)on2)cc1 | −21.3% | 0.656 µM | > 20 µM | 5 |  |  |  |  |  | 
6 | Cc1cc(NS(=O)(=O)c2ccc(-c3cc4ccccc4s3)cc2)no1 | −1.8% | 1.76 µM | > 20 µM | 4 and 5 |  |  |  |  |  | 
7 | Cc1cc(NS(=O)(=O)c2ccc(-c3ccccc3C)cc2)no1 | 4.8% | 0.056 µM | > 20 µM | 5 |  |  |  |  |  | 
8 | Cc1cc(NS(=O)(=O)c2ccc(-c3sccc3C)cc2)no1 | 11.5% | 0.32 µM | > 20 µM | 5 |  |  |  |  |  | 
9 | CCCNc1ccc(S(=O)(=O)Nc2cc(C)on2)cc1 [drawing 266] | −17.9% | 0.36 µM | 10.4 µM |  | >1000 µM | > 20 µM |  |  |  | 
10 | Cc1cc(NS(=O)(=O)c2ccc3ccccc3c2)no1 | −14.7% | 2.26 µM | > 20 µM | 5 |  |  |  |  |  | 
11 | CCCCc1ccc(S(=O)(=O)Nc2cc(C)on2)cc1 [drawing 232] | 19.4% | 0.00603 µM | 0.897 µM |  | >1000 µM |  |  |  |  | 
12 | Cc1cc(NS(=O)(=O)c2ccc(-c3nccs3)cc2)no1 | 32.7% | 2.8 µM | > 20 µM | 3 and 5 |  |  |  |  |  | 
13 | CCCCc1ccc(S(=O)(=O)Nc2cc(C)on2)cc1 [Compound I] |  |  |  |  |  |  | 0.0049 µg/mL | greater than 1000 μM | 0.85 µg/mL | 1
14 | Cc1cc(NS(=O)(=O)c2ccc(-c3ccc(F)c(Cl)c3)cc2)no1 | 18.6% | 0.192 µM | > 20 µM | 5 |  |  |  |  |  | 
15 | Cc1cc(NS(=O)(=O)c2ccc(-c3ccc(F)cc3F)cc2)no1 [drawing 258] | −3.6% |  |  |  | >1000 µM |  |  |  |  | 
16 | Cc1cc(NS(=O)(=O)c2ccc(CC3C4CCC(C4)C3(C)C)cc2)no1 (stereo not shown) | −0.6% | 18 µM | > 20 µM | 5 |  |  |  |  |  | 
17 | Cc1cc(NS(=O)(=O)c2ccc(-c3ccc(F)c(F)c3)cc2)no1 | 8.8% | 1.1 µM | > 20 µM | 5 |  |  |  |  |  | 
18 | Cc1cc(NS(=O)(=O)c2ccc(Oc3ccccc3)cc2)no1 | 4.4% | 5.21 µM | > 20 µM | 5 |  |  |  |  |  | 
19 | Cc1ccc(-c2ccc(S(=O)(=O)Nc3cc(C)on3)cc2)cc1 | 12.3% | 0.041 µM | > 20 µM |  | >1000 µM |  |  |  |  | 
20 | CCCCc1ccc(S(=O)(=O)Nc2ccon2)cc1 | 18.3% | 1.42 µM | 17.4 µM | 5 |  |  |  |  |  | 
21 | Cc1cc(NS(=O)(=O)c2ccc(C3CCCC3)cc2)no1 | 13.9% | 0.11 µM | 19.8 µM | 5 |  |  |  |  |  | 
22 | Cc1cc(NS(=O)(=O)c2ccc(OC(C)C)cc2)no1 | 0.8% | 3.6 µM | > 20 µM | 5 |  |  |  |  |  | 
